Consider five molecules from patent US5612217A, “Streptomyces sp. MA 7074 (ATCC 55605) used for microbial synthesis of HIV protease inhibitors” (Merck & Co., Inc., priority 1994, dated 1997).

The assay addresses T1, HIV protease (Human immunodeficiency virus type 1 group M subtype B, UniProt P03366).
T1 construct: the protease expressed in Eschericia coli; made in house; host or cells: Escherichia coli
As to the kind of experiment: Assay for inhibition of microbial expressed HIV protease (in vitro, peptide substrate cleavage, HPLC). The following applies: for % Potency Relative to Compound J, Based On Nominal Wt. / % Potency Relative to Compound J, Based on HPLC: IC50 of Compound J / IC50 of test compound x 100; for % Potency Relative to Compound J, Based On Nominal Wt.: dilution based on nominal weight; for % Potency Relative to Compound J, Based on HPLC: concentration checked by HPLC using J as standard. It counts as biochemical. Here is the method:
Inhibition studies of the reaction of the protease expressed in Eschericia coli with a peptide substrate [Val-Ser-Gln-Asn-(betanapthyl)Ala-Pro-Ile-Val, 0.5 mg/mL at the time the reaction is initiated] were in 50 mM Na acetate, pH 5.5, at 30° C. for 1 hour. Various concentrations of inhibitor in 1.0 μl DMSO were added to 25 μl of the peptide solution in water. The reaction is initiated by the addition of 15 μl of 0.33 nM protease (0.11 ng) in a solution of 0.133M Na acetate pH 5.5 and 0.1% bovine serum albumin. The reaction was quenched with 160 μl of 5% phosphoric acid. Products of the reaction were separated by HPLC (VYDAC wide pore 5 cm C-18 reverse phase, acetonitrile gradient, 0.1% phosphoric acid). The extent of inhibition of the reaction was determined as IC50 from the peak heights of the products.
Seven Compound J bioconversion products were assayed for in vitro HIV protease inhibitory by the assay for inhibition of microbial expressed HIV Protease, protocol given above. Two of the bioconversion products were isolated from MA7074 incubations, Compounds B1 and F. The IC50 of the parent Compound J was divided by the IC50 of each test compound and multiplied by 100 in order to calculate the percent potency of each compound relative to J.
In some cases, the dilution of the test compound was based on nominal weight. In other cases, especially when the weight was less than 250 μg, the concentration was checked by HPLC using J as standard.

With `CC(C)(C)NC(=O)[C@@H]1CN(Cc2cccnc2)CCN1C[C@@H](O)C[C@@H](Cc1ccccc1)C(=O)N[C@H]1c2ccccc2[C@H](O)[C@H]1O` [A], the “% Potency Relative to Compound J, Based On Nominal Wt.” value is 27%. As to `CC(C)(C)NC(=O)[C@@H]1CN(Cc2cccnc2)CCN1C[C@@H](O)C[C@@H](Cc1ccccc1)C(=O)N[C@H]1c2ccccc2[C@@H](O)[C@H]1O` [Compound B1], the “% Potency Relative to Compound J, Based on HPLC” value worked out at 115%. Turning to `CC(C)(C)NC(=O)[C@@H]1CN(Cc2cccnc2)CCN1C[C@@H](O)C[C@@H](Cc1ccccc1)C(=O)N[C@H]1c2ccccc2C(=O)[C@H]1O` [Compound F], the “% Potency Relative to Compound J, Based On Nominal Wt.” value came out at 16%. For the same molecule, for the setting “qualitative statement, compared with Compound J where stated”, the “HIV-protease activity (in words)” value is recorded as “less HIV-protease activity than Compound J”.

For `CC(C)(C)NC(=O)[C@@H]1CN(Cc2cccnc2)CCN1C[C@@H](O)C[C@@H](Cc1ccc(O)cc1)C(=O)N[C@H]1c2ccccc2C[C@H]1O` [D], the “% Potency Relative to Compound J, Based on HPLC” value is 31% and the “% Potency Relative to Compound J, Based On Nominal Wt.” value is listed as 3.1%.

As for `CC(C)(C)NC(=O)[C@@H]1CN(Cc2ccc[n+]([O-])c2)CCN1C[C@@H](O)C[C@@H](Cc1ccccc1)C(=O)N[C@H]1c2ccccc2C[C@H]1O` [E], the “% Potency Relative to Compound J, Based On Nominal Wt.” value is 34%.
